The values below come from patent US12084472B2 (Ardelyx, Inc., priority 2015, dated 2024).

Molecules are shown by their SMILES.

This experiment addresses T1, human TGR5 (Homo sapiens, UniProt Q8TDU6).
T1 construct: expressed in transfected cells; host or cells: HEK293
T1 sequence (Q8TDU6 1-330): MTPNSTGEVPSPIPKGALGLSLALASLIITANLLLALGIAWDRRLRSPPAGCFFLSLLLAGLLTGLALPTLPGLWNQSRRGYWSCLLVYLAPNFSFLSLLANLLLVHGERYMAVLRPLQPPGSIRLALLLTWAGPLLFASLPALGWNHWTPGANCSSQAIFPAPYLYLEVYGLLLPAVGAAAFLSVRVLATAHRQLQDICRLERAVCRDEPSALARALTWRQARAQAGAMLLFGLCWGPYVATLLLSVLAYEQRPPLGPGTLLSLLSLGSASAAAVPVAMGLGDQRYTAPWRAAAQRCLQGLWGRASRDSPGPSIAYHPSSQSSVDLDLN
Kind of experiment: Cell-based TGR5 assay (cAMP generation, HTRF). The following applies: HEK293 cells stably transfected with human TGR5; cAMP by HTRF; 30 minutes at 37° C.; read-out: pEC50 Human TGR5 (converted). A digest of the protocol:
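Read-out was HTRF detection of cAMP, converted to concentration via a standard curve and fitted (3-parameter logistic) for pEC50 and maximal response. Agonist stimulation used HEK293 cells stably transfected with human TGR5, incubated 30 min at 37° C in IBMX-containing buffer at 0.05 nM to 10 μM compound.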
On to `O=C(NCCCCSc1ccc(Cl)c(COC2(c3cnccc3-c3ccccc3OC3CC3)CC2)c1)NC[C@H](O)[C@@H](O)[C@H](O)[C@H](O)CO` [Compound I-621, 1-(4-{[4-chloro-3-({1-[4-(2-cyclopropoxyphenyl)pyridin-3-yl]cyclopropoxy}methyl)phenyl]sulfanyl}butyl)-3-[(2S,3R,4R,5R)-2,3,4,5,6-pentahydroxyhexyl]urea], for which the EC50 was below 100 nM.

`O=C(NCCCSc1ccc(Cl)c(CNC2(c3cnccc3-c3ccccc3OC3CC3)CC2)c1)NC[C@H](O)[C@@H](O)[C@H](O)[C@H](O)CO` [Compound I-622, 1-[3-({4-chloro-3-[({1-[4-(2-cyclopropoxyphenyl)pyridin-3-yl]cyclopropyl}amino)methyl]phenyl}sulfanyl)propyl]-3-[(2S,3R,4R,5R)-2,3,4,5,6-pentahydroxyhexyl]urea]: the EC50 is below 100 nM.

Regarding `O=C(NCCCCSc1ccc(Cl)c(CNC2(c3cnccc3-c3ccccc3OC3CC3)CC2)c1)NC[C@H](O)[C@@H](O)[C@H](O)[C@H](O)CO` [Compound I-623, 1-[4-({4-chloro-3-[({1-[4-(2-cyclopropoxyphenyl)pyridin-3-yl]cyclopropyl}amino)methyl]phenyl}sulfanyl)butyl]-3-[(2S,3R,4R,5R)-2,3,4,5,6-pentahydroxyhexyl]urea], the EC50 was below 100 nM.

As for `O=C1NCCN1CCN(CCCCSc1ccc(Cl)c(CNC2(c3cnccc3-c3ccccc3OC3CC3)CC2)c1)C(=O)[C@@H](O)[C@@H](O)[C@H](O)[C@@H](O)CO` [Compound I-624, (2S,3S,4R,5S)-N-[4-({4-chloro-3-[({1-[4-(2-cyclopropoxyphenyl)pyridin-3-yl]cyclopropyl}amino)methyl]phenyl}sulfanyl)butyl]-2,3,4,5,6-pentahydroxy-N-[2-(2-oxoimidazolidin-1-yl)ethyl]hexanamide], the EC50 is 126 to 1000 nM.

`O=C(NCCCSc1ccc(Cl)c(COC2(c3cnccc3-c3ccccc3OC3CC3)CC2)c1)NC[C@H](O)[C@@H](O)[C@H](O)[C@H](O)CO` [Compound I-625, 1-(3-{[4-chloro-3-({1-[4-(2-cyclopropoxyphenyl)pyridin-3-yl]cyclopropoxy}methyl)phenyl]sulfanyl}propyl)-3-[(2S,3R,4R,5R)-2,3,4,5,6-pentahydroxyhexyl]urea]: the EC50 is below 100 nM.

In the case of `O=C(NCCOCCSc1ccc(Cl)c(CNC2(c3cnccc3-c3ccccc3OC3CC3)CC2)c1)NC[C@H](O)[C@@H](O)[C@H](O)[C@H](O)CO` [Compound I-626, 1-{2-[2-({4-chloro-3-[({1-[4-(2-cyclopropoxyphenyl)pyridin-3-yl]cyclopropyl}amino)methyl]phenyl}sulfanyl)ethoxy]ethyl}-3-[(2S,3R,4R,5R)-2,3,4,5,6-pentahydroxyhexyl]urea], the EC50 was below 100 nM.

Consider `O=C(NCCCCCSc1ccc(Cl)c(COC2(c3cnccc3-c3ccccc3OC3CC3)CC2)c1)NCCCCNC(=O)NC[C@H](O)[C@@H](O)[C@H](O)[C@H](O)CO` [Compound I-627], for which the EC50 is below 100 nM.

For the compound `O=C(NCCCCSc1ccc(Cl)c(COC2(c3cnccc3-c3ccccc3OC3CC3)CC2)c1)N[C@@H](CO)[C@@H](O)[C@H](O)[C@H](O)CO` [Compound I-628, 1-(4-{[4-chloro-3-({1-[4-(2-cyclopropoxyphenyl)pyridin-3-yl]cyclopropoxy}methyl)phenyl]sulfanyl}butyl)-3-[(2S,3R,4S,5R)-1,3,4,5,6-pentahydroxyhexan-2-yl]urea], the EC50 was below 100 nM.

For the compound `O=C(NCCCCNC(=O)NC[C@H](O)[C@@H](O)[C@H](O)[C@H](O)CO)NCCCCSc1ccc(Cl)c(COC2(c3cnccc3-c3ccccc3OC3CC3)CC2)c1` [Compound I-629, 1-(4-{[(4-{[4-chloro-3-({1-[4-(2-cyclopropoxyphenyl)pyridin-3-yl]cyclopropoxy}methyl)phenyl]sulfanyl}butyl)carbamoyl]amino}butyl)-3-[(2S,3R,4R,5R)-2,3,4,5,6-pentahydroxyhexyl]urea], the EC50 is below 100 nM.

`O=C(NCCCCCSc1ccc(Cl)c(COC2(c3cnccc3-c3ccccc3OC3CC3)CC2)c1)N[C@H]1CC[C@H](NC(=O)NC[C@H](O)[C@@H](O)[C@H](O)[C@H](O)CO)CC1` [Compound I-630, 1-(5-{[4-chloro-3-({1-[4-(2-cyclopropoxyphenyl)pyridin-3-yl]cyclopropoxy}methyl)phenyl]sulfanyl}pentyl)-3-[(1r,4r)-4-({[(2S,3R,4R,5R)-2,3,4,5,6-pentahydroxyhexyl]carbamoyl}amino)cyclohexyl]urea]: the EC50 is below 100 nM.

Turning to `O=C(CN1CCC(NC(=O)NCCCCCSc2ccc(Cl)c(COC3(c4cnccc4-c4ccccc4OC4CC4)CC3)c2)CC1)NC[C@H](O)[C@@H](O)[C@H](O)[C@H](O)CO` [Compound I-631, 2-(4-{[(5-{[4-chloro-3-({1-[4-(2-cyclopropoxyphenyl)pyridin-3-yl]cyclopropoxy}methyl)phenyl]sulfanyl}pentyl)carbamoyl]amino}piperidin-1-yl)-N-[(2S,3R,4R,5R)-2,3,4,5,6-pentahydroxyhexyl]acetamide], the EC50 was below 100 nM.

For the compound `O=C(NCCCCSc1ccc(Cl)c(COC2(c3cnccc3-c3ccccc3OC3CC3)CC2)c1)N[C@H]1CC[C@H](NC(=O)NC[C@H](O)[C@@H](O)[C@H](O)[C@H](O)CO)CC1` [Compound I-632, 1-(4-{[4-chloro-3-({1-[4-(2-cyclopropoxyphenyl)pyridin-3-yl]cyclopropoxy}methyl)phenyl]sulfanyl}butyl)-3-[(1r,4r)-4-({[(2S,3R,4R,5R)-2,3,4,5,6-pentahydroxyhexyl]carbamoyl}amino)cyclohexyl]urea], the EC50 was below 100 nM.

As to `O=C(CN1CCC(NC(=O)NCCCCSc2ccc(Cl)c(COC3(c4cnccc4-c4ccccc4OC4CC4)CC3)c2)CC1)NC[C@H](O)[C@@H](O)[C@H](O)[C@H](O)CO` [Compound I-633, 2-(4-{[(4-{[4-chloro-3-({1-[4-(2-cyclopropoxyphenyl)pyridin-3-yl]cyclopropoxy}methyl)phenyl]sulfanyl}butyl)carbamoyl]amino}piperidin-1-yl)-N-[(2S,3R,4R,5R)-2,3,4,5,6-pentahydroxyhexyl]acetamide], the EC50 is below 100 nM.

For the compound `O=C(NCCCCCSc1ccc(Cl)c(COC2(c3cnccc3-c3ccccc3OC3CC3)CC2)c1)N[C@H]1CC[C@@H](NC(=O)NC[C@H](O)[C@@H](O)[C@H](O)[C@H](O)CO)CC1` [Compound I-634, 1-(5-{[4-chloro-3-({1-[4-(2-cyclopropoxyphenyl)pyridin-3-yl]cyclopropoxy}methyl)phenyl]sulfanyl}pentyl)-3-[(1s,4s)-4-({[(2S,3R,4R,5R)-2,3,4,5,6-pentahydroxyhexyl]carbamoyl}amino)cyclohexyl]urea], the EC50 is below 100 nM.

Take `O=C(NCCCCSc1ccc(Cl)c(COC2(c3cnccc3-c3ccccc3OC3CC3)CC2)c1)N[C@H]1CC[C@@H](NC(=O)NC[C@H](O)[C@@H](O)[C@H](O)[C@H](O)CO)CC1` [Compound I-635, 1-(4-{[4-chloro-3-({1-[4-(2-cyclopropoxyphenyl)pyridin-3-yl]cyclopropoxy}methyl)phenyl]sulfanyl}butyl)-3-[(1s,4s)-4-({[(2S,3R,4R,5R)-2,3,4,5,6-pentahydroxyhexyl]carbamoyl}amino)cyclohexyl]urea]: the EC50 is below 100 nM.

On to `O=C(NCCCCCSc1ccc(Cl)c(COC2(c3cnccc3-c3ccccc3OC3CC3)CC2)c1)N[C@@H](CO)[C@@H](O)[C@H](O)[C@H](O)CO` [Compound I-636, 1-(5-{[4-chloro-3-({1-[4-(2-cyclopropoxyphenyl)pyridin-3-yl]cyclopropoxy}methyl)phenyl]sulfanyl}pentyl)-3-[(2S,3R,4S,5R)-1,3,4,5,6-pentahydroxyhexan-2-yl]urea], for which the EC50 was below 100 nM.

As for `O=C(NCCOCCSc1ccc(Cl)c(COC2(c3cnccc3-c3ccccc3OC3CC3)CC2)c1)N[C@@H](CO)[C@@H](O)[C@H](O)[C@H](O)CO` [Compound I-637, 1-[2-(2-{[4-chloro-3-({1-[4-(2-cyclopropoxyphenyl)pyridin-3-yl]cyclopropoxy}methyl)phenyl]sulfanyl}ethoxy)ethyl]-3-[(2S,3R,4S,5R)-1,3,4,5,6-pentahydroxyhexan-2-yl]urea], the EC50 was below 100 nM.

On to `O=C(NCCCCNC(=O)NCCOCCSc1ccc(Cl)c(COC2(c3cnccc3-c3ccccc3OC3CC3)CC2)c1)NCCOCCSc1ccc(Cl)c(COC2(c3cnccc3-c3ccccc3OC3CC3)CC2)c1` [Compound I-638, 3-[2-(2-{[4-chloro-3-({1-[4-(2-cyclopropoxyphenyl)pyridin-3-yl]cyclopropoxy}methyl)phenyl]sulfanyl}ethoxy)ethyl]-1-[4-({[2-(2-{[4-chloro-3-({1-[4-(2-cyclopropoxyphenyl)pyridin-3-yl]cyclopropoxy}methyl)phenyl]sulfanyl}ethoxy)ethyl]carbamoyl}amino)butyl]urea], for which the EC50 was 126 to 1000 nM.

For the compound `O=C(NCCCCC[S+]([O-])c1ccc(Cl)c(COC2(c3cnccc3-c3ccccc3OC3CC3)CC2)c1)NC[C@H](O)[C@@H](O)[C@H](O)[C@H](O)CO` (stereo partly drawn) [Compound I-639, 1-{5-[4-chloro-3-({1-[4-(2-cyclopropoxyphenyl)pyridin-3-yl]cyclopropoxy}methyl)benzenesulfinyl]pentyl}-3-[(2S,3R,4R,5R)-2,3,4,5,6-pentahydroxyhexyl]urea], the EC50 is below 100 nM.
